Assay results published in patent US12285460B2, “Pharmaceutical compositions” (RHYTHM PHARMACEUTICALS, INC., priority 2013, dated 2025).
Bridge positions count the residues as written; N and C are the ends. Square brackets hold non-standard residues; d marks the D form. Peptide text beside a SMILES is read from it. dPhe(4-F) = N[C@H](Cc1ccc(F)cc1)C(=O)O; Pen = CC(C)(S)[C@H](N)C(=O)O; hCys = N[C@@H](CCS)C(=O)O

Experiments:
Format in all cases: cell-based
MC5R = biological target: T1, MC5R (Homo sapiens, UniProt P33032); assay: cAMP assay (EC50), MC5R; settings: EC50(MC5R)/EC50(MC4R)
T1 construct: host or cells: CHO-K1 (ECL assay)
Method: Stimulation of intracellular cyclic AMP (cAMP) levels by the peptides is determined in a dose dependent manner by an electrochemiluminescence (ECL) assay (Meso Scale Discovery, Gaithersburg, MD, USA; referred to hereinafter as “MSD”). Briefly, the CHO-K1 cells stably expressing the hMC receptor subtypes are suspended in RMPI 1640® assay buffer (RMPI 1640 buffer contains 0.5 mM IBMX, and 0.2% protein cocktail (MSD blocker A)). About 7,000 cells/well of the transgenic CHO-K1 cells stably expressing hMC receptor subtypes 1, 3, 4 or 5 are dispensed in 384-well Multi-Array plates (MSD) containing integrated carbon electrodes and coated with anti-cAMP antibody. Increasing concentrations of the test compounds are added and the cells are incubated for approximately 40 minutes at 37° C. A cell lysis buffer (HEPES-buffered saline solution with MgCl2 and Triton X-100® at pH 7.3) containing 0.2% protein cocktail and 2.5 nM TAG™ ruthenium-labeled cAMP (MSD) is added and the cells are incubated for approximately 90 minutes at room temperature. At the end of the second incubation period, the read buffer (Tris-buffered solution containing an ECL co-reactant and Triton X-100 at pH 7.8) is added and the cAMP levels in the cell lysates are immediately determined by ECL detection with a Sector Imager 6000 Reader® (MSD). Data are analyzed using a computer-assisted non-linear regression analysis (XL fit; IDBS) and reported as either an EC50 value. […]
(§1) A chemiluminescence readout system that uses an enzyme fragment complementation (EFC) system with β-galactosidase (β-Gal) as the functional reporter system was used. This assay system for various melanocortin receptor systems is commercially available (cAMP Hunter GPCR assay system, Discoverx Corp, Fremont, CA). This assay utilizes the β-Gal enzyme that is split into two complementary portions; EA for Enzyme Acceptor and ED for Enzyme Donor. In the assay, the ED portion fused to cAMP is made to compete with cAMP generated by cells for binding to a cAMP-specific antibody. The EA is then added to form active β-Gal with any unbound ED-cAMP. This active enzyme then converts a chemiluminescent substrate to generate an output signal that is recorded on a standard microplate reader.
(§2) Briefly, 10000 cells per well are plated overnight and each well (cells incubated with 10 μl assay buffer) is then incubated with 4× serial concentration of the test compound in the cell assay buffer (5 μL) and cAMP antibody reagent (5 μL) for 30 min at 37° C. The cell lysis buffer (20 μL) containing ED-cAMP coupled enzyme fragment and the reporter substrate (Emerald II-Galacton Star, 5:1) is then added and incubated for 60 min at room temperature. Next, 20 μL of EA β-Gal fragment reagent is added.

MC1R = biological target: T2, MC1R (Homo sapiens, UniProt Q01726); assay: cAMP assay (EC50), MC1R; settings: EC50(MC1R)/EC50(MC4R)
T2 construct: host or cells: CHO-K1 (ECL assay)
Method: (§3) Stimulation of intracellular cyclic AMP (cAMP) levels by the peptides is determined in a dose dependent manner by an electrochemiluminescence (ECL) assay (Meso Scale Discovery, Gaithersburg, MD, USA; referred to hereinafter as “MSD”). Briefly, the CHO-K1 cells stably expressing the hMC receptor subtypes are suspended in RMPI 1640® assay buffer (RMPI 1640 buffer contains 0.5 mM IBMX, and 0.2% protein cocktail (MSD blocker A)). About 7,000 cells/well of the transgenic CHO-K1 cells stably expressing hMC receptor subtypes 1, 3, 4 or 5 are dispensed in 384-well Multi-Array plates (MSD) containing integrated carbon electrodes and coated with anti-cAMP antibody. Increasing concentrations of the test compounds are added and the cells are incubated for approximately 40 minutes at 37° C. A cell lysis buffer (HEPES-buffered saline solution with MgCl2 and Triton X-100® at pH 7.3) containing 0.2% protein cocktail and 2.5 nM TAG™ ruthenium-labeled cAMP (MSD) is added and the cells are incubated for approximately 90 minutes at room temperature. At the end of the second incubation period, the read buffer (Tris-buffered solution containing an ECL co-reactant and Triton X-100 at pH 7.8) is added and the cAMP levels in the cell lysates are immediately determined by ECL detection with a Sector Imager 6000 Reader® (MSD). Data are analyzed using a computer-assisted non-linear regression analysis (XL fit; IDBS) and reported as either an EC50 value.
(§4) Human MC4-R transfected cells are grown to confluence in 96 well plates (plating approximately 250,000 cells per well). The cells are treated in triplicate sets with 0.2 mM isobutylmethylxanthine (IBMX) and graded concentrations of the peptide or alternatively the peptide in the presence of 20 nM NDP-MSH. Cells similarly treated but with only 20 nM NDP-MSH serve as positive controls in a volume of 200 μL. A buffer blank serving as a negative control is also included. After incubation of one hour at 37° C., the cells are lysed by the addition of 50 μL of a cell lysis buffer. Total cAMP accumulated in 250 μL of this incubation medium is quantitated using a commercially available low pH cAMP assay kit (Amersham BioSciences) as per procedure specified by the kit supplier. […] The data for agonist is plotted and curve fitted to determine the EC50 value. A peptide showing accumulation in the same range as the negative control (buffer blank in the absence of alpha-MSH) is ineffective at the test concentration. A peptide showing attenuated accumulation is considered to be an antagonist if there is inhibition in cAMP when alpha-MSH is also present in the assay. Similar assay can be performed with hMC-1R, hMC-3R, and hMC-5R cells.
as §1, with “ED-cAMP.” for “ED-cAMP. This active enzyme then converts a chemiluminescent substrate to generate an output signal that is recorded on a standard microplate reader.”
as §2

MC3R = biological target: T3, MC3R (Homo sapiens, UniProt P41968); assay: cAMP assay (EC50), MC3R; settings: EC50(MC3R)/EC50(MC4R)
T3 construct: host or cells: CHO-K1 (ECL assay)
Method: as §3, §4
as §1, with “ED-cAMP.” for “ED-cAMP. This active enzyme then converts a chemiluminescent substrate to generate an output signal that is recorded on a standard microplate reader.”
as §2

T3 sequence (P41968 whole entry): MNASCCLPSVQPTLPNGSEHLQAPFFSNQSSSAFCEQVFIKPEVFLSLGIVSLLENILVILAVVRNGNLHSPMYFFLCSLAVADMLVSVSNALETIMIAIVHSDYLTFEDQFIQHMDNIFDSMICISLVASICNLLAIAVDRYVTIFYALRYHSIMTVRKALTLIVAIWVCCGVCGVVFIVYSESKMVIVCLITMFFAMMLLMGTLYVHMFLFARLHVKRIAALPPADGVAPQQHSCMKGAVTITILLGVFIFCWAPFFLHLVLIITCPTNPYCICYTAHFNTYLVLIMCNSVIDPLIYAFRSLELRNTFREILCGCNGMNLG
T1 sequence (P33032 whole entry): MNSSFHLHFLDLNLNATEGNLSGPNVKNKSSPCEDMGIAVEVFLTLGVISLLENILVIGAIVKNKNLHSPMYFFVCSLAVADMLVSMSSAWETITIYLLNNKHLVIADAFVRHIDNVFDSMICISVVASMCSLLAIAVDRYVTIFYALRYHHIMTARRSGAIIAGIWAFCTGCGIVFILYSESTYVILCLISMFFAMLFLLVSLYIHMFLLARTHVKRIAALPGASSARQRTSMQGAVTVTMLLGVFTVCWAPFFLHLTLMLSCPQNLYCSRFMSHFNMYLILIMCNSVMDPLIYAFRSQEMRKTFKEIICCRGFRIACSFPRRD
T2 sequence (Q01726 whole entry): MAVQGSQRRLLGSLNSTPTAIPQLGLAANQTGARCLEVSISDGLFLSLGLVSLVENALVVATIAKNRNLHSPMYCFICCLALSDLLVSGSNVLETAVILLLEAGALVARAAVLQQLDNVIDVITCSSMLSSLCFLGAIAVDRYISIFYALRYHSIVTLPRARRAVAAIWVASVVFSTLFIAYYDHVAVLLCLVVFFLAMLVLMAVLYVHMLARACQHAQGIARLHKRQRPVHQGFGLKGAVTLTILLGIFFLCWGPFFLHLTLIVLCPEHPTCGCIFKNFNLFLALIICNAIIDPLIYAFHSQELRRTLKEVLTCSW

Row | Compound | Ratios of EC50 values MC5/4 (MC5R) | Ratios of EC50 values MC1/4 (MC1R) | Ratios of EC50 values MC3/4 (MC3R)
1 | CC(=O)N[C@@H](CCC(=O)O)C(=O)N[C@H]1CSSC[C@@H](C(N)=O)NC(=O)[C@H](Cc2c[nH]c3ccccc23)NC(=O)[C@H](CCCNC(=N)N)NC(=O)[C@@H](Cc2ccccc2)NC(=O)[C@H](Cc2c[nH]cn2)NC(=O)[C@H](C)NC1=O [Compound 22, Ac-Glu-cyclo[Cys-Ala-His-D-Phe-Arg-Trp-Cys]-NH2] (Ac-ECAH[dF]RWC-NH2; disulfide 2-8) | >2563 | >3 | >20
2 | CC(=O)N[C@@H](CCCNC(=N)N)C(=O)N[C@H]1CCSSC[C@@H](C(N)=O)NC(=O)[C@H](Cc2c[nH]c3ccccc23)NC(=O)[C@H](CCCNC(=N)N)NC(=O)[C@@H](Cc2ccccc2)NC(=O)[C@@H](C)NC1=O [Compound 16, Ac-Arg-cyclo[hCys-D-Ala-D-Phe-Arg-Trp-Cys]-NH2] (Ac-R[hCys][dA][dF]RWC-NH2; disulfide 2-7) | >1338 | 120 | 420
3 | CC(=O)N[C@@H](CCCNC(=N)N)C(=O)N[C@H]1CSSC[C@@H](C(N)=O)NC(=O)[C@H](Cc2c[nH]c3ccccc23)NC(=O)[C@H](CCCNC(=N)N)NC(=O)[C@@H](Cc2ccccc2)NC(=O)[C@H](Cc2cncn2C)NC(=O)[C@@H](C)NC1=O [Compound 5, Ac-Arg-cyclo[Cys-D-Ala-His(3-Me)-D-Phe-Arg-Trp-Cys]-NH2] | 945 | 4 | 350
4 | CC(=O)N[C@@H](CCCNC(=N)N)C(=O)N[C@H]1CSSC[C@@H](C(N)=O)NC(=O)[C@H](Cc2c[nH]c3ccccc23)NC(=O)[C@H](CCCNC(=N)N)NC(=O)[C@@H](Cc2ccccc2)NC(=O)[C@H](Cc2c[nH]cn2)NC(=O)[C@@H](C(C)(C)C)NC1=O [Compound 3, Ac-Arg-cyclo[Cys-D-Tie-His-D-Phe-Arg-Trp-Cys]-NH2] | 930 | 1 | 1
5 | CC(=O)N[C@@H](CCCNC(=N)N)C(=O)N[C@H]1CCSSC(C)(C)[C@@H](C(N)=O)NC(=O)[C@H](Cc2c[nH]c3ccccc23)NC(=O)[C@H](CCCNC(=N)N)NC(=O)[C@@H](Cc2ccccc2)NC(=O)[C@@H](C)NC1=O [Compound 17, Ac-Arg-cyclo[hCys-D-Ala-D-Phe-Arg-Trp-Pen]-NH2] (Ac-R[hCys][dA][dF]RW[Pen]-NH2; disulfide 2-7) | 159 | 15 | 17
6 | CC(=O)N[C@@H](CCCNC(=N)N)C(=O)N[C@H]1CSSC[C@@H](C(N)=O)NC(=O)[C@H](Cc2c[nH]c3ccccc23)NC(=O)[C@H](CCCNC(=N)N)NC(=O)[C@@H](Cc2ccccc2)NC(=O)[C@H](CCCNC(=N)N)NC(=O)[C@@H](C)NC1=O [Compound 10, Ac-Arg-cyclo[Cys-D-Ala-Arg-D-Phe-Arg-Trp-Cys]-NH2] (Ac-RC[dA]R[dF]RWC-NH2; disulfide 2-8) | – | 2.31 | 1.45
7 | CC[C@@H](C)[C@H]1NC(=O)[C@@H](NC(=O)[C@H](CCCNC(=N)N)NC(C)=O)CSSC[C@@H](C(N)=O)NC(=O)[C@H](Cc2c[nH]c3ccccc23)NC(=O)[C@H](CCCNC(=N)N)NC(=O)[C@@H](Cc2ccccc2)NC(=O)[C@H](Cc2c[nH]cn2)NC1=O [Compound 2, Ac-Arg-cyclo[Cys-D-Ile-His-D-Phe-Arg-Trp-Cys]-NH2] | 420 | 0.69 | 0.96
8 | CC(=O)N[C@@H](CCCNC(=N)N)C(=O)N[C@H]1CSSC[C@@H](C(N)=O)NC(=O)[C@H](Cc2c[nH]c3ccccc23)NC(=O)[C@H](CCCNC(=N)N)NC(=O)[C@@H](Cc2ccccc2)NC(=O)[C@H](Cc2c[nH]cn2)NC(=O)[C@@H](C(C)C)NC1=O [Compound 4, Ac-Arg-cyclo[Cys-D-Val-His-D-Phe-Arg-Trp-Cys]-NH2] | 584 | 0.93 | 1.19
9 | CC(=O)N[C@@H](CCCNC(=N)N)C(=O)N[C@H]1CSSC[C@@H](C(N)=O)NC(=O)[C@H](Cc2c[nH]c3ccccc23)NC(=O)[C@H](CCCNC(=N)N)NC(=O)[C@@H](Cc2ccccc2)NC(=O)[C@H](Cc2c[nH]c3ccccc23)NC(=O)[C@@H](C)NC1=O [Compound 7, Ac-Arg-cyclo[Cys-D-Ala-Trp-D-Phe-Arg-Trp-Cys]-NH2] (Ac-RC[dA]W[dF]RWC-NH2; disulfide 2-8) | 7 | 8 | >290
10 | CC(=O)N[C@@H](CCCNC(=N)N)C(=O)N[C@H]1CCSSC[C@@H](C(N)=O)NC(=O)[C@H](Cc2c[nH]c3ccccc23)NC(=O)[C@H](CCCNC(=N)N)NC(=O)[C@@H](Cc2ccccc2)NC(=O)[C@H](C)NC1=O [Compound 15, Ac-Arg-cyclo[hCys-Ala-D-Phe-Arg-Trp-Cys]-NH2] (Ac-R[hCys]A[dF]RWC-NH2; disulfide 2-7) | 161 | 15 | 3.8
11 | CC(=O)N[C@@H](CCCNC(=N)N)C(=O)N[C@H]1CSSC[C@@H](C(N)=O)NC(=O)[C@H](Cc2c[nH]c3ccccc23)NC(=O)[C@H](CCCNC(=N)N)NC(=O)[C@@H](Cc2ccc(F)cc2)NC(=O)[C@@H]2CCCN2C(=O)[C@@H](C)NC1=O [Compound 14, Ac-Arg-cyclo[Cys-D-Ala-Pro-D-Phe(p-F)-Arg-Trp-Cys]-NH2] (Ac-RC[dA]P[dPhe(4-F)]RWC-NH2; disulfide 2-8) | 12 | 7 | >400
12 | CC(=O)N[C@@H](CCCNC(=N)N)C(=O)N[C@H]1CSSC[C@@H](C(N)=O)NC(=O)[C@H](Cc2c[nH]c3ccccc23)NC(=O)[C@H](CCCNC(=N)N)NC(=O)[C@@H](Cc2ccccc2)NC(=O)[C@H](Cc2ccc(O)cc2)NC(=O)[C@@H](C)NC1=O [Compound 11, Ac-Arg-cyclo[Cys-D-Ala-Tyr-D-Phe-Arg-Trp-Cys]-NH2] (Ac-RC[dA]Y[dF]RWC-NH2; disulfide 2-8) | – | 6.67 | >22.2
